The results in this text go back to patent US20080096811A1, “[…] VPAC2 RECEPTOR PEPTIDE AGONISTS” (Eli Lilly and Company, published 2008).

pEC50, pIC50: −log10 of the molar value. Where a SMILES comes first, the peptide text is derived from it. Where no end group is shown, it is not given here. The star is where a group is joined. Hexanoyl = CCCCCC(=O)*

The target in one assay is T1, human VPAC1 (Homo sapiens, UniProt P32241).
T1 sequence (P32241 31-457): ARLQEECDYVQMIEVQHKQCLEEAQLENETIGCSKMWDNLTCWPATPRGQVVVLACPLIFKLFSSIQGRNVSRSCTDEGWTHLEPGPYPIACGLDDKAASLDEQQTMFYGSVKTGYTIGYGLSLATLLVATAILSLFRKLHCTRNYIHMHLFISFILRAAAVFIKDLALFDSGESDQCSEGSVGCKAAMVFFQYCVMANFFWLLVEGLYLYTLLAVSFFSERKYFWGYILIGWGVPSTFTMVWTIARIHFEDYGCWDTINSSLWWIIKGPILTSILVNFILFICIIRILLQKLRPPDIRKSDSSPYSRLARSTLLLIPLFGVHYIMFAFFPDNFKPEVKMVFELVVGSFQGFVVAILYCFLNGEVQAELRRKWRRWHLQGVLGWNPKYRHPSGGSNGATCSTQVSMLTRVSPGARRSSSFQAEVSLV
Put plainly: Filter binding assay, human VPAC1 membranes, 125I-labeled VIP tracer. Also on record: expressed in transfected cells. On the procedure: (§1) For this assay, the solutions and equipment include:
(§2) Presoak solution: 0.5% Polyethyleneamine in Aqua dest.
(§3) Buffer for flushing filter plates: 25 mM […] pH 7.4
(§4) Blocking buffer: 25 mM HEPES pH 7.4; 0.2% protease free BSA
(§5) Assay buffer: 25 mM HEPES pH 7.4; 0.5% protease free BSA
(§6) Dilution and assay plate: PS-Microplate, U form
(§7) Filtration Plate Multiscreen FB Opaque Plate; […] Type B Glasfiber filter
(§8) In order to prepare the filter plates, aspirate the presoak solution by vacuum filtration. Flush the plates twice with 200 μL flush buffer. Add 200 μL blocking buffer to the filter plate. The filter plate is then incubated […] for 1 hour at room temperature.
(§9) Fill the assay plate with 25 μL assay buffer, 25 μL membranes (2.5 μg) suspended in assay buffer, 25 μL compound (agonist) in assay buffer, and 25 μL tracer (about 40000 cpm) in assay buffer. Incubate the filled plate for 1 hour with shaking.
(§10) Conduct the transfer from assay plate to filter plate. Aspirate the blocking buffer by vacuum filtration and wash two times with flush buffer. Transfer 90 μL from the assay plate to the filter plate. Aspirate the 90 μL transferred from assay plate and wash three times with 200 μL flush buffer. Remove the plastic support. Dry for 1 hour at 60° C. Add 30 μL Microscint. Perform the count.

For the next assay, the target named is human PAC1 (Homo sapiens, UniProt P41586). Briefly: biochemical. As for the experimental part: as §1, §2, §3, §4, §5, §6, §7, §8, §9, §10
human PAC1, sequence (P41586 21-468): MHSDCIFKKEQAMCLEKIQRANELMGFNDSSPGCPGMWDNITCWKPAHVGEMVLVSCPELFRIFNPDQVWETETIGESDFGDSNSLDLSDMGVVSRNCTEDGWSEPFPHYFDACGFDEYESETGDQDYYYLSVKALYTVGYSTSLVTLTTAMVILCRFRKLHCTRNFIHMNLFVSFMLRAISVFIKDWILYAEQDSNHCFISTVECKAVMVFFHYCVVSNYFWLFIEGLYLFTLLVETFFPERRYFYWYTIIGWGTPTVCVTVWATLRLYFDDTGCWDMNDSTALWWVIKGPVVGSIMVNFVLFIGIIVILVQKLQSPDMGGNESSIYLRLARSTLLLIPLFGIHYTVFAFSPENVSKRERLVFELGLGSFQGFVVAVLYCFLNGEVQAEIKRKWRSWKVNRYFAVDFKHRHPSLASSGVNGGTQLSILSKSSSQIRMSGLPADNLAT
Assay [1] deals with T2, human VPAC2 (Homo sapiens, UniProt P41587).
T2 construct: expressed in transfected cells
T2 sequence (P41587 24-438): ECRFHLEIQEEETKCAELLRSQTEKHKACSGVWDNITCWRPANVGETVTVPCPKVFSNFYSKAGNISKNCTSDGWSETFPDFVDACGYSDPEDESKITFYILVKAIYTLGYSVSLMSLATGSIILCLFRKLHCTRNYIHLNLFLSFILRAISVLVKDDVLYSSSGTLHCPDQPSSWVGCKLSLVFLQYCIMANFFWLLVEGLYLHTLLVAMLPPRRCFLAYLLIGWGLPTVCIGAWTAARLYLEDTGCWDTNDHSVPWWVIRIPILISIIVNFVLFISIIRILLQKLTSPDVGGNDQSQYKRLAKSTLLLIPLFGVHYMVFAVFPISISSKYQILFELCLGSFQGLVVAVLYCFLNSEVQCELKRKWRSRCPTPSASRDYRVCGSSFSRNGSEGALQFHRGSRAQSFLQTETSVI
Briefly: Alpha screen cAMP in vitro potency, human VPAC2. It counts as cell-based. On the procedure: Alpha screen: Cells are washed in the culture flask once with PBS. Then, the cells are rinsed with enzyme free dissociation buffer. The dissociated cells are removed. The cells are then spun down and washed in stimulation buffer. For each data point, 50,000 cells suspended in stimulation buffer are used. To this buffer, Alpha screen acceptor beads are added along with the stimuli. This mixture is incubated for 60 minutes. Lysis buffer and Alpha screen donor beads are added and are incubated for 60 to 120 minutes. The Alpha screen signal (indicative of intracellular cAMP levels) is read in a suitable instrument (e.g. AlphaQuest from Perlin-Elmer). Steps including Alpha screen donor and acceptor beads are performed in reduced light.

The target of assay [2] is T2, human VPAC2. Briefly: Filter binding assay, human VPAC2 membranes, 125I-labeled VIP tracer. On the procedure:
as §1, §2, §3, §4, §5, §6, §7, §8, §9, §10

The pIC50 is −log10 of the IC50, conventionally taken in molar units. A high value points to a low IC50. What is called pEC50 is the negative decadic logarithm of the EC50, by convention in mol/L. For `CCCCCC(=O)N[C@@H](Cc1c[nH]cn1)C(=O)N[C@@H](CO)C(=O)N[C@@H](CC(=O)O)C(=O)N[C@@H](C)C(=O)N[C@H](C(=O)N[C@@H](Cc1ccccc1)C(=O)N[C@H](C(=O)N[C@@H](CC(=O)O)C(=O)N[C@@H](CC(N)=O)C(=O)N[C@@H](Cc1ccc(O)cc1)C(=O)N[C@H](C(=O)N[C@@H](CCCNC(=N)N)C(=O)N[C@@H](CC(C)C)C(=O)N[C@@H](CC(C)C)C(=O)N[C@@H](CC(C)C)C(=O)N[C@@H](CCCCN)C(=O)N[C@H](C(=O)N[C@@H](C)C(=O)N[C@@H](C)C(=O)N[C@@H](CCCCN)C(=O)N[C@@H](CCCCN)C(=O)N[C@@H](Cc1ccc(O)cc1)C(=O)N[C@@H](CC(C)C)C(=O)N[C@@H](CCC(N)=O)C(=O)N[C@@H](CO)C(=O)N[C@H](C(=O)N[C@@H](CCCCN)C(=O)N[C@@H](CC(N)=O)C(=O)N[C@@H](CO)C(=O)N[C@@H](CCCNC(=N)N)C(=O)N[C@H](C(=O)N[C@@H](CO)C(=O)N1CCC[C@H]1C(=O)N1CCC[C@H]1C(=O)N1CCC[C@H]1C(N)=O)[C@@H](C)O)[C@@H](C)CC)C(C)C)[C@@H](C)O)[C@@H](C)O)C(C)C` [Agonist P156] (Hexanoyl-HSDAVFTDNYTRLLLKVAAKKYLQSIKNSRTSPPP-NH2), the pIC50 was 7.03 on human VPAC1, 5.08 at human PAC1 and 9.38 on human VPAC2 [2]. Besides, the pEC50 at human VPAC2 [1] is 9.54.
As to `CCCCCC(=O)N[C@@H](Cc1c[nH]cn1)C(=O)N[C@@H](CO)C(=O)N[C@@H](CC(=O)O)C(=O)N[C@@H](C)C(=O)N[C@H](C(=O)N[C@@H](Cc1ccccc1)C(=O)N[C@H](C(=O)N[C@@H](CC(=O)O)C(=O)N[C@@H](CCC(N)=O)C(=O)N[C@@H](Cc1ccc(O)cc1)C(=O)N[C@H](C(=O)N[C@@H](CCCNC(=N)N)C(=O)N[C@@H](CC(C)C)C(=O)N[C@@H](CCCNC(=N)N)C(=O)N[C@@H](CCCCN)C(=O)N[C@@H](CCC(N)=O)C(=O)N[C@H](C(=O)N[C@@H](C)C(=O)N[C@@H](C)C(=O)N[C@@H](CCCCN)C(=O)N[C@@H](CCCCN)C(=O)N[C@@H](Cc1ccc(O)cc1)C(=O)N[C@@H](CC(C)C)C(=O)N[C@@H](CCC(N)=O)C(=O)N[C@@H](CO)C(=O)N[C@H](C(=O)N[C@@H](CCCCN)C(=O)N[C@@H](CCC(N)=O)C(=O)N[C@@H](CO)C(=O)N[C@@H](CCCNC(=N)N)C(=O)N[C@H](C(=O)N[C@@H](CO)C(=O)N1CCC[C@H]1C(=O)N1CCC[C@H]1C(=O)N1CCC[C@H]1C(N)=O)[C@@H](C)O)[C@@H](C)CC)C(C)C)[C@@H](C)O)[C@@H](C)O)C(C)C` [Agonist P157] (Hexanoyl-HSDAVFTDQYTRLRKQVAAKKYLQSIKQSRTSPPP-NH2), the pIC50 at human VPAC1 was 7.51; on human PAC1, 6.65; at human VPAC2 [2], 9.85. This molecule also had a pEC50 at human VPAC2 [1] of 10.22.
Regarding “HSDAVFTDNYTRLRKAAAAKKYLQSIKNSRTSPPP-NH2 [Agonist P97]”, the values for the pIC50 at human VPAC1, at human PAC1 and at human VPAC2 [2] were 7.01, 7.06 and 9.09, respectively. On human VPAC2 [1], this molecule had a pEC50 of 9.19.
“HSDAVFTDNYTRLRKQAAAKKYLQSIKNSRTSPPP-NH2 [Agonist P96]”: the negative logarithm of the IC50 (pIC50) on human VPAC1 is 7.05; against human PAC1 it was 6.82; on human VPAC2 [2], 9.24. In addition, on human VPAC2 [1], the pEC50 was 9.05.
